For assay [1], the target named is Citron Rho-interacting kinase (Homo sapiens) (UniProt O14578). In words: Inhibition of STK21 (unknown origin) at 10 uM after 120 mins P33 radiolabeled kinase activity assay.
In assay [2] the target is T1, Ephrin type-A receptor 1 (Homo sapiens) (UniProt P21709).
T1 sequence (whole entry): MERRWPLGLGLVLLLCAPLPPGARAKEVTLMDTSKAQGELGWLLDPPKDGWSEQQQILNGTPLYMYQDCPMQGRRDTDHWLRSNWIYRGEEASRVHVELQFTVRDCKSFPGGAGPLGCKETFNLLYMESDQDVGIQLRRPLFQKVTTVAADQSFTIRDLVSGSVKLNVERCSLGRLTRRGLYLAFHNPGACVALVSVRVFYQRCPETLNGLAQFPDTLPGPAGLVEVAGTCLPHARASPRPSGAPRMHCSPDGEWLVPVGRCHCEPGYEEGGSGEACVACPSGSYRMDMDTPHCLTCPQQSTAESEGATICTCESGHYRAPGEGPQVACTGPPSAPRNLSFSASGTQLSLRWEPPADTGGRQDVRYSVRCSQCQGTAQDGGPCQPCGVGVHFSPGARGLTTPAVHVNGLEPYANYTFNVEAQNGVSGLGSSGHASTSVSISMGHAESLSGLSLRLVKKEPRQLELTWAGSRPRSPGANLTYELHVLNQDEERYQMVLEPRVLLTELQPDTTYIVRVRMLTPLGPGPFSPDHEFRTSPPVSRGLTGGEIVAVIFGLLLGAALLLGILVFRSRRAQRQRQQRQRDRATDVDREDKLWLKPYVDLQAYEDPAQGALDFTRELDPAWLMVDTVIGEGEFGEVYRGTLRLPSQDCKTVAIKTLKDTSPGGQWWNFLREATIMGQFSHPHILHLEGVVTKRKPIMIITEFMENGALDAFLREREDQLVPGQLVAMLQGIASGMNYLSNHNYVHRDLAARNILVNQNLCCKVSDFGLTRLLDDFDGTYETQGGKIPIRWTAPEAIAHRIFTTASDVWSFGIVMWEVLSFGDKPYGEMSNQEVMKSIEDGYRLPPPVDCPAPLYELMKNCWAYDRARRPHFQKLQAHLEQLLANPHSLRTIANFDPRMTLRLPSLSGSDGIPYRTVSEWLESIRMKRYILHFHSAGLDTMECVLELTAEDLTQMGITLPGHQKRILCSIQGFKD
In words: Inhibition of EPHA1 (unknown origin) at 10 uM after 120 mins P33 radiolabeled kinase activity assay.

Assay [3] has as its target Serine/threonine-protein kinase N3 (Homo sapiens) (UniProt Q6P5Z2). Briefly: Inhibition of PKN3 (unknown origin) at 10 uM after 120 mins P33 radiolabeled kinase activity assay.
The target of assay [4] is LIM domain kinase 1 (Homo sapiens) (UniProt P53667). Briefly: Inhibition of LIMK1 (unknown origin) at 10 uM after 120 mins P33 radiolabeled kinase activity assay.
For assay [5], the target named is Serine/threonine-protein kinase Chk2 (Homo sapiens) (UniProt O96017). In words: Inhibition of CHK2 (unknown origin) at 10 uM after 120 mins P33 radiolabeled kinase activity assay.
Assay [6] addresses Serine/threonine-protein kinase SIK3 (Homo sapiens) (UniProt Q9Y2K2). Briefly: Inhibition of SIK3 (unknown origin) at 10 uM after 120 mins P33 radiolabeled kinase activity assay.
The target in assay [7] is Serine/threonine-protein kinase 10 (Homo sapiens) (UniProt O94804). Briefly: Inhibition of LOK (unknown origin) at 10 uM after 120 mins P33 radiolabeled kinase activity assay.
Chain of Serine/threonine-protein kinase 10 (Homo sapiens) (O94804 whole entry, looked up): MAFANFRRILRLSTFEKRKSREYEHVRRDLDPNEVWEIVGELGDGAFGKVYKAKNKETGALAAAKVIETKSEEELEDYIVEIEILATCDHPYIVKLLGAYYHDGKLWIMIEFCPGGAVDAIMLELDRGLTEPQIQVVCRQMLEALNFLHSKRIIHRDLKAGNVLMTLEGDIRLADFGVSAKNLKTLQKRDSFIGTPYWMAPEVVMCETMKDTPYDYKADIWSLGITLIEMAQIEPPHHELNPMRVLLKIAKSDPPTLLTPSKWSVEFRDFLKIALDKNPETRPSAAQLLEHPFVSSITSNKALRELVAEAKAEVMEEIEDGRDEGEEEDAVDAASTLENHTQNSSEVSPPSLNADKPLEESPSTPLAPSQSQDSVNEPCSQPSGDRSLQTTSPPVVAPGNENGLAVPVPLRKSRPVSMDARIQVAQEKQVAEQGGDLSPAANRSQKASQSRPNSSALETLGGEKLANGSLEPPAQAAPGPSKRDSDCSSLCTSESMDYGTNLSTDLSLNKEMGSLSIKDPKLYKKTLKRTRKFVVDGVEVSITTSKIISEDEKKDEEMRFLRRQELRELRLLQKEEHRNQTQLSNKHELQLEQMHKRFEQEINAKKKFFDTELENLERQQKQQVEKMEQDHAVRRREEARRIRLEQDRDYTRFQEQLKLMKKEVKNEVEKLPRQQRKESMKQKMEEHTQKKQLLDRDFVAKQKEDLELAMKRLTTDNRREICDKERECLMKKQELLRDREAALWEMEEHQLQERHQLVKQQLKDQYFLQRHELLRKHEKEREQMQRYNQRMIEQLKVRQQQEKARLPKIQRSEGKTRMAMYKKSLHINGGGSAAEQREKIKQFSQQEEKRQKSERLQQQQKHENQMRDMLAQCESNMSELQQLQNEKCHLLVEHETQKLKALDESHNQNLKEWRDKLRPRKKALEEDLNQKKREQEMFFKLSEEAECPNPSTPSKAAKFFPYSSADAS
The target in assay [8] is Tyrosine-protein kinase Blk (Homo sapiens) (UniProt P51451). Briefly: Inhibition of BLK (unknown origin) at 10 uM after 120 mins P33 radiolabeled kinase activity assay.
Chain of Tyrosine-protein kinase Blk (Homo sapiens) (P51451 2-505 limits assumed): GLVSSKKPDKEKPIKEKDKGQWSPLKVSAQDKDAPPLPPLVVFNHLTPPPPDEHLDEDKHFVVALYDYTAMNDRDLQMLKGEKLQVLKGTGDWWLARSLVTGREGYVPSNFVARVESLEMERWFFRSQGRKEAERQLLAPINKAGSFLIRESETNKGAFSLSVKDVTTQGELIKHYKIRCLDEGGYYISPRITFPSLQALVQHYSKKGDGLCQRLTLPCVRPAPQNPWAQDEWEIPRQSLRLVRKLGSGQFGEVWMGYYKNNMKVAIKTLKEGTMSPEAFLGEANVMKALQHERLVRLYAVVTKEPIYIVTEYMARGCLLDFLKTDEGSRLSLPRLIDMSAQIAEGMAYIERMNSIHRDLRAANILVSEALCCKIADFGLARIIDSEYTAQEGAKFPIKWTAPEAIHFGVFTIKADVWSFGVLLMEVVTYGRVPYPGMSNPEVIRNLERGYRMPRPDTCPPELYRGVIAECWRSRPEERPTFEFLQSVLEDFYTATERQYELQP
For assay [9], the target named is Epidermal growth factor receptor (Homo sapiens) (UniProt P00533). Briefly: Inhibition of EGFR (unknown origin) at 10 uM after 120 mins P33 radiolabeled kinase activity assay.
Assay [10] concerns the target T2, Serine/threonine-protein kinase Sgk1 (Homo sapiens) (UniProt O00141).
T2 sequence (whole entry): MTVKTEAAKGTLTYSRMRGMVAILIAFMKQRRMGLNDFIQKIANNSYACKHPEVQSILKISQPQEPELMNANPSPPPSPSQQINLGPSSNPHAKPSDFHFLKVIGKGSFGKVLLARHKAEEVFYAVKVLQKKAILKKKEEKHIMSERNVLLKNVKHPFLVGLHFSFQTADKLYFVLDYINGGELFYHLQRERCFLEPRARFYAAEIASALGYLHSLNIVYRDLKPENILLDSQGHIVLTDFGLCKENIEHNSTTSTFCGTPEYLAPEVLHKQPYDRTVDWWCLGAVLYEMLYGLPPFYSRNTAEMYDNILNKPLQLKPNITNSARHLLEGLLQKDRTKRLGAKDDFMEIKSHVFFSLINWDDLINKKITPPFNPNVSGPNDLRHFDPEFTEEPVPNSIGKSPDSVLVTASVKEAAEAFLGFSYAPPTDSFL
Briefly: Inhibition of SGK1 (unknown origin) at 10 uM after 120 mins P33 radiolabeled kinase activity assay.

Assay [11] concerns the target Cyclin-dependent kinase 1/cyclin B1 (Homo sapiens) (UniProt P06493+P14635). In words: Inhibition of CDK1/cyclin B (unknown origin) at 10 uM after 120 mins P33 radiolabeled kinase activity assay. It is filed as protein-complex assay.
For assay [12], the target named is Cyclin-dependent kinase 5/CDK5 activator 1 (Homo sapiens) (UniProt Q00535+Q15078). Briefly: Inhibition of CDK5/p25 (unknown origin) at 10 uM after 120 mins P33 radiolabeled kinase activity assay. It is filed as protein-complex assay.
Chain of Cyclin-dependent kinase 5/CDK5 activator 1 (Homo sapiens) (Q00535 whole entry): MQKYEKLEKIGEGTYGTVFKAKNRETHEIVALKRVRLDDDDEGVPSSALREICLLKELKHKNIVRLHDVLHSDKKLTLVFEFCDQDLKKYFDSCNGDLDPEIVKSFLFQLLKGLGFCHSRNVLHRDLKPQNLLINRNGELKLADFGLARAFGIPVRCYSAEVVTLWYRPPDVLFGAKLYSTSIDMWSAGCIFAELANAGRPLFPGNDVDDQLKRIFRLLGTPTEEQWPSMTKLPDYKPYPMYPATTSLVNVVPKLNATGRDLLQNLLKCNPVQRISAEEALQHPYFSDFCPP
Chain of Cyclin-dependent kinase 5/CDK5 activator 1 (Homo sapiens) (Q15078 99-307 partner limits assumed): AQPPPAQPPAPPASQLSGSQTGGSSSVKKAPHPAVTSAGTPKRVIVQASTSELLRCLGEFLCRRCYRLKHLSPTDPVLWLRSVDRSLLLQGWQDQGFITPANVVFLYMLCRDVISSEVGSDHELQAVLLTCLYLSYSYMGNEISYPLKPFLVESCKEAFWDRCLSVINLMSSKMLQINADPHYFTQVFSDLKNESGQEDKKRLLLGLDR
Assay [13] concerns the target ALK tyrosine kinase receptor (Homo sapiens) (UniProt Q9UM73). In words: Inhibition of ALK (unknown origin) at 10 uM after 120 mins P33 radiolabeled kinase activity assay.
Assay [14] deals with Serine/threonine-protein kinase MRCK beta (Homo sapiens) (UniProt Q9Y5S2). Briefly: Inhibition of MRCKbeta (unknown origin) at 10 uM after 120 mins P33 radiolabeled kinase activity assay.
Chain of Serine/threonine-protein kinase MRCK beta (Homo sapiens) (Q9Y5S2 whole entry): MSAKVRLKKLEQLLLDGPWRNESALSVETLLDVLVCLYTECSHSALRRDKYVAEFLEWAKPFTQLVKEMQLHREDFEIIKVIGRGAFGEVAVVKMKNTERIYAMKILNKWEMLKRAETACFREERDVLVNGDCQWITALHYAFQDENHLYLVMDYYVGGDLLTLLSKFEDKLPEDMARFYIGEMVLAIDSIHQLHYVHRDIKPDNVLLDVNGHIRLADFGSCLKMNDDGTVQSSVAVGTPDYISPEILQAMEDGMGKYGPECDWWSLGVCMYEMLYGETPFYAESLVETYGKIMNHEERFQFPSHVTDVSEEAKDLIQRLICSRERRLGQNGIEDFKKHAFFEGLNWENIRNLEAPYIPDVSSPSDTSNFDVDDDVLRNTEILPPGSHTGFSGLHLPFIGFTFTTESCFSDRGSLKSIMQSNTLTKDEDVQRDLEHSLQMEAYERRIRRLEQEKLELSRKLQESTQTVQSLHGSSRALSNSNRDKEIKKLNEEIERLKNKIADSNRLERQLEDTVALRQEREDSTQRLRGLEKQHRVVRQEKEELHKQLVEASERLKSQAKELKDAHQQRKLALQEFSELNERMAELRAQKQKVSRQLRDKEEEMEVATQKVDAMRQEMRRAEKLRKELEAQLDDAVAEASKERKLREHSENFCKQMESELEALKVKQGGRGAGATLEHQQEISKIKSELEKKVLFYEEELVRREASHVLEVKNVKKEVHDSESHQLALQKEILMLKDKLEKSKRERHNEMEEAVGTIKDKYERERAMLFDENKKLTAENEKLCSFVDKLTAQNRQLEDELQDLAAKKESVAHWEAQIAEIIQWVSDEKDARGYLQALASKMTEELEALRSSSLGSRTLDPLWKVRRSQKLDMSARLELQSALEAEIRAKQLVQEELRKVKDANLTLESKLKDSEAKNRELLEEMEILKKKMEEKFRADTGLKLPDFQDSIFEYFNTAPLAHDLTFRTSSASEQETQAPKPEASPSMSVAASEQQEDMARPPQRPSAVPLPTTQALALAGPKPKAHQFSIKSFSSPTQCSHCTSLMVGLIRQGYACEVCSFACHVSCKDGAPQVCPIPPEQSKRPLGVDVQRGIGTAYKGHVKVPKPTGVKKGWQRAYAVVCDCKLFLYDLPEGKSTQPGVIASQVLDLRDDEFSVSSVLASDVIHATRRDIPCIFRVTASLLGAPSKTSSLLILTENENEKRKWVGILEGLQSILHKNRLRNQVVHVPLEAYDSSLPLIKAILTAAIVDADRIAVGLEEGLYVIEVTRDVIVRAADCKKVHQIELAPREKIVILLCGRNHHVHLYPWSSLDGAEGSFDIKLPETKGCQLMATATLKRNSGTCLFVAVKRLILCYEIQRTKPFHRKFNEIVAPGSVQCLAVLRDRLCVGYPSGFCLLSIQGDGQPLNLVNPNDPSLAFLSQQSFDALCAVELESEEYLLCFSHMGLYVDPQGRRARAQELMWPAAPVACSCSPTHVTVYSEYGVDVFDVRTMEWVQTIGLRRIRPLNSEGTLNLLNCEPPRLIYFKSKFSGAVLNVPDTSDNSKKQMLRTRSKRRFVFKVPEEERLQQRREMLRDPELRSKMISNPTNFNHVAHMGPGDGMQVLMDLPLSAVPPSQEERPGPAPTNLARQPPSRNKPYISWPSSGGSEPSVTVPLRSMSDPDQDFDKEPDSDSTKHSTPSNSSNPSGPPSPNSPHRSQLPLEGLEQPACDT

Chain of Serine/threonine-protein kinase SIK3 (Homo sapiens) (Q9Y2K2 whole entry, looked up): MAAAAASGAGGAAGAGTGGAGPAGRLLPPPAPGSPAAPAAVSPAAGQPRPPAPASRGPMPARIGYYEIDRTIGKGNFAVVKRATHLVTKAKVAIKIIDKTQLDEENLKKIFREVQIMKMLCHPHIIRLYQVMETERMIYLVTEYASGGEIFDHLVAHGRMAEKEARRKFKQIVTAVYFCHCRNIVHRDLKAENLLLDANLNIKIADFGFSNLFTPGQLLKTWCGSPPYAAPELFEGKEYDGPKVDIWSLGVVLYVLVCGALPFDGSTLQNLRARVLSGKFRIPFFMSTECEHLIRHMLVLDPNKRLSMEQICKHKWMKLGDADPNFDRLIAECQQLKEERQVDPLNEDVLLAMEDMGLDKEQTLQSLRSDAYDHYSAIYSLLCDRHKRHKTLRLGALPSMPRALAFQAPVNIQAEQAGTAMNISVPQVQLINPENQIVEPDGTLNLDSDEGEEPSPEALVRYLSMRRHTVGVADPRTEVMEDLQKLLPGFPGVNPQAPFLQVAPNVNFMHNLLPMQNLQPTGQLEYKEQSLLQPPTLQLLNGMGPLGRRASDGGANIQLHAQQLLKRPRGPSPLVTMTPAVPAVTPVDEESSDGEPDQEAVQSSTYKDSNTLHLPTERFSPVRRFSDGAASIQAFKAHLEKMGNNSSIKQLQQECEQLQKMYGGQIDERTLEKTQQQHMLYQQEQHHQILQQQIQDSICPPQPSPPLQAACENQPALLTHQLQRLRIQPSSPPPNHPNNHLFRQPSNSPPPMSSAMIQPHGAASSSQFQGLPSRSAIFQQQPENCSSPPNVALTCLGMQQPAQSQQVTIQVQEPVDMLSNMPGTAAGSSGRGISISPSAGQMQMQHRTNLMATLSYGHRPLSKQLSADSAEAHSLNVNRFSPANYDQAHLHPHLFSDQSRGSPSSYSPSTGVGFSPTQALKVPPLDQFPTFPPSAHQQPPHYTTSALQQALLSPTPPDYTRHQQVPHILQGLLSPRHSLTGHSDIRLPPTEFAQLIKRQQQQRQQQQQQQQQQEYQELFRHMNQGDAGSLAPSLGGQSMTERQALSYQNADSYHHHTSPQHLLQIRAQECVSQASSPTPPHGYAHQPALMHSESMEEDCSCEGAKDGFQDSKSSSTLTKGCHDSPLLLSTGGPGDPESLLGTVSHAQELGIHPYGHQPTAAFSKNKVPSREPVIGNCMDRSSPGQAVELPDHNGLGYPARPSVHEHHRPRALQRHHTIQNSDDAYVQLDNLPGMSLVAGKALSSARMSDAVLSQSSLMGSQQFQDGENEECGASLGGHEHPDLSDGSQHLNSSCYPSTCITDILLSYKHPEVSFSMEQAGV

In the case of `COCCNC(=O)c1ccc2c(c1)nc(-c1cnc(-c3ccc(Cl)cc3)[nH]1)n2CCOC`, the inhibition in assay [1] is -5.27%; in [2], 16.6%; in assay [3] it was 17.9%; in assay [4], 8.6%; in assay [5], -5.19%; in assay [6], 6.53%. The inhibition is 28.4% in [7]; 34.2% in assay [8]; 7.68% in [9]; 10.1% in assay [10]; -3.76% in assay [11]; 1.93% in assay [12]. In addition, the inhibition in [13] was 0.02%; in assay [14], 11.1%.
`CC(C)(C)c1cc(NC(=O)Nc2ccc(Oc3ccncc3)cc2)no1`: the inhibition in assay [1] was -1.52%; in assay [2] it was 86.2%; in assay [3], 31.5%; in assay [4], 75.6%; in assay [5] it was 11.1%; in assay [6], 9.52%. Further, the inhibition in assay [7] was determined as 92.8%; in [8], 65.8%; in [9], 6.23%; in assay [10], 1.68%; in assay [11], 35.1%; in assay [12] it was 49.4%. Further, the results for the inhibition in assay [13] and in [14] were 17.4% and 16.5%, respectively.
For `CS(=O)(=O)c1cccc(Nc2nccc(-c3sc(N4CCOCC4)nc3-c3cccc(NS(=O)(=O)c4c(F)cccc4F)c3)n2)c1`, the inhibition was -3.87% in assay [1]; 91.4% in assay [2]; 28.3% in [3]; 99.2% in assay [4]; 51.7% in assay [5]; 99.6% in [6]. The inhibition came out at 74.8% in assay [7]; 99.4% in assay [8]; 88% in [9]; 30.1% in assay [10]; 70.8% in assay [11]; 92.6% in [12]. The inhibition in [13] was 6.1%; in assay [14], 14.4%.

(Values after ChEMBL document CHEMBL3627608, “Crystal structures of human RIP2 kinase catalytic domain complexed with ATP-competitive inhibitors: Foundations for understanding inhibitor selectivity” (Bioorg Med Chem, 2015).)
